Publication PMC11231114 (EJNMMI Research, 2024)

Experiment: Ex vivo biodistribution after i.v. injection
Type: in vivo, Wistar rats
Procedure: Approximately 0.2 mL/31.1 MBq of compound was administered i.v. At established time points after injection (15 min, 30 min, 1 h, 2 h, 4 h and 6 h), the animals were euthanized by cervical dislocation and dissected. Selected organs and tissues were weighed, and their radioactivity was measured using a NaI(Tl) crystal gamma counter. The results were adjusted for the radioactive decay of ^18F. The physiological distribution was calculated and expressed in terms of the percentage of administrated dose found in each of the selected organs (%ID) or per gram of tissues/organ (%ID/g) with suitable standards of the injected dose.
The results of radiopharmaceutical uptake are presented as a percentage of the dose administered per gram of tissue (%ID/g) in the form of an average with standard deviation (%ID/g; mean ± standard deviation (SD)). Where applicable, statistical analysis was performed with one-way analysis of variance (ANOVA) using GraphPad Prism software (GraphPad Software, La Jolla, CA, USA).

[1] = 15 min after dosing, listed as [18F]SYN2
[2] = 6 h after dosing, listed as [18F]SYN2

For `CN(C)c1ccc2cc3ccc(N(C)C)cc3[n+](CC[18F])c2c1` [[^18F]SYN2], the “Mean %ID, Brain” value (15 min after dosing) was 0.23 (0.09) %ID, the “Mean %ID, Heart” value (15 min after dosing) was 2.15 (0.18) %ID and the “Mean %ID, Intestine” value (15 min after dosing) was 17.1 ± 1.8 %ID. For the same compound, the “Mean %ID, Kidneys” value (15 min after dosing) was 13.4 ± 4.0 %ID, the “Mean %ID, Liver” value (15 min after dosing) was 7.57 (0.96) %ID and the “Mean %ID, Lungs” value (15 min after dosing) was 3.88 (0.36) %ID. The “Mean %ID, Pancreas” value (15 min after dosing) was 1.33 (0.23) %ID, the “Mean %ID, Rest of the body” value (15 min after dosing) was 51.01 (2.66) %ID and the “Mean %ID, Spleen” value (15 min after dosing) was 1.01 (0.20) %ID. For the same compound, the “Mean %ID, Stomach” value (15 min after dosing) was 1.99 (0.68) %ID, the “Mean %ID, Urine” value (15 min after dosing) was 0.46 (0.31) %ID and the “Mean %ID/g, Blood” value (15 min after dosing) was 0.33 (0.04) %ID/g. For the same compound, the “Mean %ID/g, Brain” value (15 min after dosing) was 0.13 (0.15) %ID/g, the “Mean %ID/g, Heart” value (15 min after dosing) was 3.02 %ID/g and the “Mean %ID/g, Intestine” value (15 min after dosing) was 0.98 (0.10) %ID/g. The “Mean %ID/g, Kidneys” value (15 min after dosing) was 7.07 (1.77) %ID/g, the “Mean %ID/g, Liver” value (15 min after dosing) was 0.89 (0.14) %ID/g and the “Mean %ID/g, Lungs” value (15 min after dosing) was 3.04 (0.55) %ID/g. For the same compound, the “Mean %ID/g, Muscle” value (15 min after dosing) was 0.82 (0.13) %ID/g, the “Mean %ID/g, Pancreas” value (15 min after dosing) was 2.22 (0.24) %ID/g and the “Mean %ID/g, Spleen” value (15 min after dosing) was 1.96 (0.51) %ID/g. The “Mean %ID/g, Stomach” value (15 min after dosing) was 1.65 (0.94) %ID/g, the “Mean %ID, Intestine” value [1] was 17.12 (1.81) %ID and the “Mean %ID, Kidneys” value [1] was 13.35 (3.97) %ID. For the same compound, the “Mean %ID, Brain” value (30 min after dosing) was 0.19 (0.01) %ID, the “Mean %ID, Heart” value (30 min after dosing) was 2.19 (0.26) %ID and the “Mean %ID, Intestine” value (30 min after dosing) was 18.27 (1.40) %ID. The “Mean %ID, Kidneys” value (30 min after dosing) was 14.01 (3.78) %ID, the “Mean %ID, Liver” value (30 min after dosing) was 6.87 (1.10) %ID and the “Mean %ID, Lungs” value (30 min after dosing) was 2.64 (0.47) %ID. For the same compound, the “Mean %ID, Pancreas” value (30 min after dosing) was 0.97 (0.32) %ID, the “Mean %ID, Rest of the body” value (30 min after dosing) was 51.34 (1.73) %ID and the “Mean %ID, Spleen” value (30 min after dosing) was 0.79 (0.16) %ID. For the same compound, the “Mean %ID, Stomach” value (30 min after dosing) was 1.54 (0.12) %ID, the “Mean %ID, Urine” value (30 min after dosing) was 0.53 (0.25) %ID and the “Mean %ID/g, Blood” value (30 min after dosing) was 0.14 (0.02) %ID/g. The “Mean %ID/g, Brain” value (30 min after dosing) was 0.11 (0.00) %ID/g, the “Mean %ID/g, Heart” value (30 min after dosing) was 2.96 (0.49) %ID/g and the “Mean %ID/g, Intestine” value (30 min after dosing) was 1.29 (0.40) %ID/g. For the same compound, the “Mean %ID/g, Kidneys” value (30 min after dosing) was 7.22 (2.09) %ID/g, the “Mean %ID/g, Liver” value (30 min after dosing) was 0.74 (0.11) %ID/g and the “Mean %ID/g, Lungs” value (30 min after dosing) was 1.85 (0.24) %ID/g. The “Mean %ID/g, Muscle” value (30 min after dosing) was 0.46 (0.11) %ID/g, the “Mean %ID/g, Pancreas” value (30 min after dosing) was 1.75 (0.56) %ID/g and the “Mean %ID/g, Spleen” value (30 min after dosing) was 1.59 (0.41) %ID/g. The “Mean %ID/g, Stomach” value (30 min after dosing) was 1.11 (0.08) %ID/g, the “heart/liver ratio” value (1 h, based on %ID/g) was 7.0 ± 1.8 and the “heart/lungs ratio” value (1 h, based on %ID/g) was 2.1 ± 0.2. For the same compound, the “Mean %ID, Brain” value (1 h after dosing) was 0.22 (0.12) %ID, the “Mean %ID, Heart” value (1 h after dosing) was 2.23 (0.11) %ID and the “Mean %ID, Intestine” value (1 h after dosing) was 20.18 (3.19) %ID. For the same compound, the “Mean %ID, Kidneys” value (1 h after dosing) was 12.91 (2.36) %ID, the “Mean %ID, Liver” value (1 h after dosing) was 3.66 (0.83) %ID and the “Mean %ID, Lungs” value (1 h after dosing) was 1.89 (0.23) %ID. For the same compound, the “Mean %ID, Pancreas” value (1 h after dosing) was 0.93 (0.01) %ID, the “Mean %ID, Rest of the body” value (1 h after dosing) was 46.30 (1.89) %ID and the “Mean %ID, Spleen” value (1 h after dosing) was 0.60 (0.10) %ID. The “Mean %ID, Stomach” value (1 h after dosing) was 1.84 (0.47) %ID, the “Mean %ID, Urine” value (1 h after dosing) was 1.59 (0.30) %ID and the “Mean %ID/g, Blood” value (1 h after dosing) was 0.08 (0.02) %ID/g. For the same compound, the “Mean %ID/g, Brain” value (1 h after dosing) was 0.12 (0.06) %ID/g, the “Mean %ID/g, Heart” value (1 h after dosing) was 3.0 ± 0.2 %ID/g and the “Mean %ID/g, Intestine” value (1 h after dosing) was 1.04 (0.18) %ID/g. The “Mean %ID/g, Kidneys” value (1 h after dosing) was 6.76 (1.23) %ID/g, the “Mean %ID/g, Liver” value (1 h after dosing) was 0.45 (0.11) %ID/g and the “Mean %ID/g, Lungs” value (1 h after dosing) was 1.42 (0.15) %ID/g. For the same compound, the “Mean %ID/g, Muscle” value (1 h after dosing) was 0.58 (0.18) %ID/g, the “Mean %ID/g, Pancreas” value (1 h after dosing) was 1.63 (0.16) %ID/g and the “Mean %ID/g, Spleen” value (1 h after dosing) was 1.15 (0.23) %ID/g. The “Mean %ID/g, Stomach” value (1 h after dosing) was 1.33 (0.33) %ID/g, the “Mean %ID/g, Heart” value (1 h after dosing, listed as [18F]SYN2) was 2.99 (0.20) %ID/g and the heart/blood ratio (1 h post-injection) was 37. The “Mean %ID, Brain” value (2 h after dosing) was 0.12 (0.01) %ID, the “Mean %ID, Heart” value (2 h after dosing) was 2.03 (0.23) %ID and the “Mean %ID, Intestine” value (2 h after dosing) was 25.93 (2.92) %ID. For the same compound, the “Mean %ID, Kidneys” value (2 h after dosing) was 9.65 (1.42) %ID, the “Mean %ID, Liver” value (2 h after dosing) was 2.46 (0.28) %ID and the “Mean %ID, Lungs” value (2 h after dosing) was 1.25 (0.31) %ID. The “Mean %ID, Pancreas” value (2 h after dosing) was 0.94 (0.22) %ID, the “Mean %ID, Rest of the body” value (2 h after dosing) was 44.09 (5.00) %ID and the “Mean %ID, Spleen” value (2 h after dosing) was 0.44 (0.04) %ID. For the same compound, the “Mean %ID, Stomach” value (2 h after dosing) was 1.66 (0.16) %ID, the “Mean %ID, Urine” value (2 h after dosing) was 3.94 (3.35) %ID and the “Mean %ID/g, Blood” value (2 h after dosing) was 0.04 (0.00) %ID/g. For the same compound, the “Mean %ID/g, Brain” value (2 h after dosing) was 0.07 (0.00) %ID/g, the “Mean %ID/g, Heart” value (2 h after dosing) was 2.58 (0.24) %ID/g and the “Mean %ID/g, Intestine” value (2 h after dosing) was 1.50 (0.24) %ID/g. For the same compound, the “Mean %ID/g, Kidneys” value (2 h after dosing) was 5.10 (0.85) %ID/g, the “Mean %ID/g, Liver” value (2 h after dosing) was 0.30 (0.04) %ID/g and the “Mean %ID/g, Lungs” value (2 h after dosing) was 0.90 (0.22) %ID/g. For the same compound, the “Mean %ID/g, Muscle” value (2 h after dosing) was 0.41 (0.09) %ID/g, the “Mean %ID/g, Pancreas” value (2 h after dosing) was 1.55 (0.36) %ID/g and the “Mean %ID/g, Spleen” value (2 h after dosing) was 0.84 (0.11) %ID/g. The “Mean %ID/g, Stomach” value (2 h after dosing) was 1.23 (0.22) %ID/g, the “Mean %ID, Brain” value (4 h after dosing) was 0.25 (0.04) %ID and the “Mean %ID, Heart” value (4 h after dosing) was 2.15 (0.08) %ID. For the same compound, the “Mean %ID, Intestine” value (4 h after dosing) was 30.51 (0.47) %ID, the “Mean %ID, Kidneys” value (4 h after dosing) was 5.20 (0.36) %ID and the “Mean %ID, Liver” value (4 h after dosing) was 1.71 (0.27) %ID. For the same compound, the “Mean %ID, Lungs” value (4 h after dosing) was 0.89 (0.02) %ID, the “Mean %ID, Pancreas” value (4 h after dosing) was 0.84 (0.35) %ID and the “Mean %ID, Rest of the body” value (4 h after dosing) was 44.50 (2.38) %ID. For the same compound, the “Mean %ID, Spleen” value (4 h after dosing) was 0.32 (0.03) %ID, the “Mean %ID, Stomach” value (4 h after dosing) was 1.94 (0.38) %ID and the “Mean %ID, Urine” value (4 h after dosing) was 12.42 (1.40) %ID. For the same compound, the “Mean %ID/g, Blood” value (4 h after dosing) was 0.06 (0.02) %ID/g, the “Mean %ID/g, Brain” value (4 h after dosing) was 0.13 (0.02) %ID/g and the “Mean %ID/g, Heart” value (4 h after dosing) was 2.68 (0.44) %ID/g. The “Mean %ID/g, Intestine” value (4 h after dosing) was 1.88 (0.10) %ID/g, the “Mean %ID/g, Kidneys” value (4 h after dosing) was 2.86 (0.08) %ID/g and the “Mean %ID/g, Liver” value (4 h after dosing) was 0.21 (0.05) %ID/g. The “Mean %ID/g, Lungs” value (4 h after dosing) was 0.70 (0.02) %ID/g, the “Mean %ID/g, Muscle” value (4 h after dosing) was 0.51 (0.04) %ID/g and the “Mean %ID/g, Pancreas” value (4 h after dosing) was 1.56 (0.06) %ID/g. The “Mean %ID/g, Spleen” value (4 h after dosing) was 0.66 (0.06) %ID/g, the “Mean %ID/g, Stomach” value (4 h after dosing) was 1.58 (0.25) %ID/g and the “Mean %ID, Brain” value (6 h after dosing) was 0.21 (0.02) %ID. For the same compound, the “Mean %ID, Heart” value (6 h after dosing) was 2.27 (0.21) %ID, the “Mean %ID, Intestine” value (6 h after dosing) was 33.4 ± 1.4 %ID and the “Mean %ID, Kidneys” value (6 h after dosing) was 3.4 ± 0.4 %ID. The “Mean %ID, Liver” value (6 h after dosing) was 1.07 (0.11) %ID, the “Mean %ID, Lungs” value (6 h after dosing) was 0.78 (0.14) %ID and the “Mean %ID, Pancreas” value (6 h after dosing) was 0.80 (0.05) %ID. For the same compound, the “Mean %ID, Rest of the body” value (6 h after dosing) was 44.67 (1.68) %ID, the “Mean %ID, Spleen” value (6 h after dosing) was 0.29 (0.02) %ID and the “Mean %ID, Stomach” value (6 h after dosing) was 1.53 (0.15) %ID. For the same compound, the “Mean %ID, Urine” value (6 h after dosing) was 15.27 (0.87) %ID, the “Mean %ID/g, Blood” value (6 h after dosing) was 0.04 (0.01) %ID/g and the “Mean %ID/g, Brain” value (6 h after dosing) was 0.13 (0.01) %ID/g. For the same compound, the “Mean %ID/g, Heart” value (6 h after dosing) was 2.79 %ID/g, the “Mean %ID/g, Intestine” value (6 h after dosing) was 2.00 (0.49) %ID/g and the “Mean %ID/g, Kidneys” value (6 h after dosing) was 1.69 (0.22) %ID/g. The “Mean %ID/g, Liver” value (6 h after dosing) was 0.12 (0.02) %ID/g, the “Mean %ID/g, Lungs” value (6 h after dosing) was 0.55 (0.08) %ID/g and the “Mean %ID/g, Muscle” value (6 h after dosing) was 0.53 (0.05) %ID/g. For the same compound, the “Mean %ID/g, Pancreas” value (6 h after dosing) was 1.27 (0.10) %ID/g, the “Mean %ID/g, Spleen” value (6 h after dosing) was 0.56 (0.02) %ID/g and the “Mean %ID/g, Stomach” value (6 h after dosing) was 1.12 (0.12) %ID/g. The “Mean %ID, Intestine” value [2] was 33.42 (1.37) %ID, the “Mean %ID, Kidneys” value [2] was 3.44 (0.37) %ID and the “retention in all other organs examined (other than intestine, kidneys)” value (ex vivo biodistribution) was under 2 %ID/g. The myocardial uptake (from 2 to 6 h) was 2.6–2.8 %ID/g, the “uptake in the myocardium” value (up to 6 h) was “higher than 2.5 %ID/g” and the myocardial uptake (within 1-hour post-injection) was “about 3.0 %ID/g”.
